Data taken from PubChem BioAssay AID1963597 (National Center for Advancing Translational Sciences (NCATS), 2024).

tested on: human liver microsomes, metabolic stability half-life; test: NCATS Human Liver Microsomal (HLM) Stability Profiling; conditions: higher = more stable; screened at 1 µM (by protocol)
Method in brief: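 Substrate depletion (in vitro t1/2): 1 µM compound with 0.5 mg/mL microsomes and NADPH regenerating system, phosphate buffer pH 7.4, 37 °C. Sampled at 0, 5, 10, 15, 30, 60 min into cold acetonitrile with albendazole internal standard for MS quantification.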

`NC(=O)c1nnn(Cc2cc(Cl)c(C(=O)c3ccc(Cl)cc3)c(Cl)c2)c1N` and `Cn1ncc(Cl)c1-c1cc(C(=O)NC(CN)Cc2ccc(F)c(F)c2)oc1Cl` (stereo not drawn) cannot be ordered by half-life: greater than 120 min for the first, greater than 120 min for the second.

Going from `CC1=C(c2ccc(NC(=O)c3c(F)cccc3F)cc2)CN(c2nccs2)CC1` to `CC(C)c1ccc2oc(-c3ccc(NC(=O)c4cc5ccccc5o4)cc3)nc2c1`, the half-life falls from 38.9 min to 25.3 min (1.5-fold).

Compared with `CN(C)Cc1c(C(=O)NCCOc2ccc(C(=O)NO)cc2)oc2ccccc12`, `CCOCCCNC(=O)CCC(=O)NNc1nc2ccccc2c2nc(-c3ccccc3)nn12` is lower in half-life: greater than 120 min for the first, 88 min for the second.

First: CCc1nn(C)c(C(=O)NCc2ccc(Oc3ccc(C)cc3)cc2)c1Cl
Second: COc1ccc(OCC(=O)Nc2cc(-c3nc4ccccc4s3)ccc2C)cc1
The half-life of the first is 2.2-fold higher: 7.51 min for the first, 3.38 min for the second.

Compared with `O=C(O)C1CN(Cc2ccc(-c3nc4cc(Cc5ccccc5F)ccc4s3)c(F)c2)C1`, `O=C(CC1N=C2c3ccccc3N=C(SCc3ccc(Cl)cc3)N2C1=O)NCCc1ccccc1` (stereo not drawn) is lower in half-life: greater than 120 min for the first, 4.19 min for the second.

First: Cc1ccc(C(C)(O)c2nc3ccccc3s2)c(C)c1 (stereo not drawn)
Second: Cc1ccc2c(c1)C(=O)[C@]1(O)CCN(c3ccccc3)C1=N2
The half-life of the first is 2.5-fold higher: 4.22 min for the first, 1.71 min for the second.

`CC(Cc1ccc2c(c1)OCO2)NCC(O)c1ccc(O)c(O)c1` (stereo not drawn) and `COc1cc(/C=N\NC(=O)c2ccc3c(c2)OCO3)ccc1OCc1ccccc1` are within 1.5-fold of each other in half-life: 18.6 min for the first, 23.5 min for the second.

First: COc1ccc(CN2CCC3(CC(C)=NO3)C2)cc1 (stereo not drawn)
Second: COc1ccc(CCC(C)=O)cc1
The half-life of the first is lower: 19.2 min for the first, greater than 120 min for the second.

Compared with `COc1ccc(Sc2ccc(NC(=O)c3ccccc3Cl)cc2C#N)cc1`, `CC(C)c1ccc(NC(=O)C(c2ccccc2)N(C)C(=O)Cc2c[nH]c3ccccc23)cc1` (stereo not drawn) is 4.3-fold lower in half-life: 31.4 min for the first, 7.38 min for the second.

Compared with `COc1cc(C(=O)OC(COCCC(C)C)CN2CCOCC2)cc(OC)c1OC` (stereo not drawn), `CCC1(O)CC2c3cc(OC)c(OC)cc3CCN2CC1CC(C)C` (stereo not drawn) is higher in half-life: 2.43 min for the first, greater than 120 min for the second.

Compared with `CCCCC(=O)O[C@]1(C(=O)CO)[C@@H](C)C[C@H]2[C@@H]3CCC4=CC(=O)C=C[C@]4(C)[C@@]3(F)[C@@H](O)C[C@@]21C`, `C[C@]12CC[C@H]3[C@@H](CCC4=CC(=O)CC[C@@]43C)[C@@H]1CC[C@@H]2C(=O)O` is higher in half-life: 4.35 min for the first, greater than 120 min for the second.

First: CC(C)(N)c1ccc(-c2nc3ccccc3nc2-c2ccccc2)cc1
Second: NC1(c2ccc(-c3nc4ccn5c(=O)[nH]nc5c4cc3-c3ccccc3)cc2)CCC1
The half-life of the first is higher: greater than 120 min for the first, 83 min for the second.

Going from `CC(C)(C)c1ccc(-c2nc3c(N4CCN(Cc5ccc6nccnc6c5)CC4)cccc3[nH]2)cc1` to `O=c1[nH]c2cccc(N3CCN(Cc4ccc(-c5ccccc5)cc4)CC3)c2o1`, the half-life rises from 20.5 min to 31.7 min (1.5-fold).

Going from `Cn1c(=O)c(F)c(Nc2ccc(I)cc2F)c2c(=O)n(CC(O)CO)cnc21` (stereo not drawn) to `CC(C)c1ccc(-n2ncc3c(=O)n(CC(=O)Nc4cc(F)ccc4Cl)cnc32)cc1`, the half-life falls from greater than 120 min to 23.9 min.

Going from `CCOP(=S)(OCC)O/N=C(\C#N)c1ccccc1` to `CC(C(=O)O)C1C=CC(C(=O)c2ccccc2)S1` (stereo not drawn), the half-life rises from 8.67 min to greater than 120 min.

First: COc1ccc(-n2nc3c(N4CCCC(C(=O)NCc5ccccc5C)C4)nnc(C)c3c2C)cc1 (stereo not drawn)
Second: Cc1nc2c3ccccc3nc(NNC(=O)CCC(=O)N3CCN(c4ccc(F)cc4)CC3)n2n1
The half-life of the first is 16-fold lower: 2.48 min for the first, 40.4 min for the second.

`CCc1nc(C(N)=O)c(Nc2ccc(N3CCC(N4CCN(C)CC4)CC3)c(OC)c2)nc1NC1CCOCC1` and `CNC(=O)O[C@H]1COc2ccc(N3CCN(C4COC4)CC3)cc2[C@@H]1NC(=O)c1ccc(F)cc1` cannot be ordered by half-life: greater than 120 min for the first, greater than 120 min for the second.

Compared with `NC(=O)[C@H]1CCS[C@@H]2C[C@]3(CCCN3C(=O)Cc3ccc(NC(=O)COc4ccc(Cl)cc4Cl)cc3)C(=O)N12`, `CCOc1ccc(NC(=O)N2CCN(c3ccc(Cl)c(Cl)c3)CC2)cc1` is higher in half-life: 7.68 min for the first, greater than 120 min for the second.

First: CN1CCC(=C2c3ccccc3CCc3cccnc32)CC1
Second: CN1CCN(CCCN2c3ccccc3Sc3ccc(C(F)(F)F)cc32)CC1
The half-life of the first is higher: greater than 120 min for the first, 22.5 min for the second.

`O=C(O)c1ccc(CN2CCC(CN[C@@H]3C[C@H]3c3ccccc3)CC2)cc1` and `CC(=O)N1CCC(Cc2ccc(C(=O)O)cc2)CC1` cannot be ordered by half-life: greater than 120 min for the first, greater than 120 min for the second.

Going from `COc1ccc2c(c1)CCCC2=O` to `CC(C)(C)NC[C@H](O)COc1cccc2c1CCCC2=O`, the half-life rises from 17.6 min to greater than 120 min.

First: CC1(C)OC[C@H](NC(=O)Nc2ccc(Br)cc2Br)[C@H](c2ccccc2)O1
Second: COc1ccc2c(c1)CC[C@@H](CN(C)CC(=O)O)[C@H]2c1ccccc1
The half-life of the first is lower: 1 min for the first, greater than 120 min for the second.

Compared with `CCOc1ccc(-n2c(C(C)N(Cc3cccnc3)C(=O)Cc3ccc(F)c(C(F)(F)F)c3)nc3ncccc3c2=O)cc1` (stereo not drawn), `Fc1ccccc1-c1nc2ccn(Cc3ccc(-c4ccc(C(F)(F)F)cc4C(F)(F)F)nn3)cc-2n1` is higher in half-life: 4.89 min for the first, greater than 120 min for the second.

`COc1cc(Nc2nc3c(s2)CCCC3c2ccccc2)ccc1-n1cnc(C)c1` (stereo not drawn) and `Cc1c(NC(=O)c2ccc(N3CCC(C)CC3)c([N+](=O)[O-])c2)cccc1-c1nc2ccccc2o1` are within 1.5-fold of each other in half-life: 31 min for the first, 30.7 min for the second.

First: CC(C(=O)O)c1ccc2c(c1)[nH]c1ccc(Cl)cc12 (stereo not drawn)
Second: CC(C)(C)c1ccc(C(=O)Nc2cc(Cl)c(Br)cc2C(=O)O)cc1
The half-life of the first is higher: greater than 120 min for the first, 6.17 min for the second.

Going from `O=C(c1ccc(F)cc1)N1CCC(C(=O)N2CCC(N3Cc4ccccc4C3=O)CC2)CC1` to `O=C(c1ccc(F)cc1)C1CCN(CCn2c(=S)[nH]c3ccccc3c2=O)CC1`, the half-life falls from greater than 120 min to 8.98 min.

First: ClCCN1CCCC1
Second: CCN1CCc2nc(N)oc2CC1
The half-life of the first is 2-fold lower: 55.7 min for the first, 112 min for the second.

Compared with `CN(C)CCN1C(=O)c2ccccc2N(C)c2ccccc21`, `O=c1c(-c2ccccc2)c1-c1ccccc1` is lower in half-life: greater than 120 min for the first, 3.57 min for the second.

`O=C(CCBr)N1CCN(C(=O)CCBr)CC1` and `CC(=O)NC[C@H]1CN(c2ccc(N3CCN(C(=O)CO)CC3)c(F)c2)C(=O)O1` cannot be ordered by half-life: greater than 120 min for the first, greater than 120 min for the second.

Compared with `Fc1ccc(C2CCNC[C@H]2COc2ccc3c(c2)OCO3)cc1` (stereo partly drawn), `O=C(O)c1ccc(CN2CCOC[C@H]2c2ncc(-c3ccc(F)cc3)[nH]2)cc1` is higher in half-life: 28.9 min for the first, greater than 120 min for the second.

Compared with `O=C(c1cnn(-c2cccc(F)c2)c1-n1cccc1)N1CCN(c2ccccc2F)CC1`, `CC(=O)c1ccc(N2CCN(c3ncnc4c3cnn4C)CC2)cc1` is 12-fold higher in half-life: 9.4 min for the first, 109 min for the second.

`CCNP(=S)(OC)O/C(C)=C/C(=O)OC(C)C` (stereo not drawn) and `CCN(CC)C(=O)/C(Cl)=C(\C)OP(=O)(OC)OC` cannot be ordered by half-life: greater than 120 min for the first, greater than 120 min for the second.

Compared with `CN1CC(O)c2cc(N=NC(N)=O)c(O)cc21` (stereo not drawn), `CC(=O)C1=C(c2ccc(Cl)c(Cl)c2)N(C(C)=O)n2cnnc2S1` is lower in half-life: greater than 120 min for the first, 4.52 min for the second.

Going from `COc1ccc(C(=O)Oc2ccc(C(c3c(C)[nH][nH]c3=O)c3c(C)[nH][nH]c3=O)cc2)cc1` to `COc1ccc(CN2CCN(C(c3ccc(F)cc3)c3ccc(F)cc3)CC2)c(OC)c1OC`, the half-life rises from 1.55 min to 13.1 min (8.5-fold).

Compared with `COc1cc(C(C)=O)ccc1OCCCN1CCC(c2noc3cc(F)ccc23)CC1`, `COCCCN1CCC(NC(=O)c2cc(Cl)c(N)c3c2OCC3)CC1` is higher in half-life: 25.1 min for the first, greater than 120 min for the second.

Going from `CCOc1cc(=O)n2c(c1C(=O)Nc1ccc(C#N)cc1)CCCC2` to `N#Cc1cccc(C(=O)Nc2ccc3ncnc(N4CCCCC4)c3c2)c1`, the half-life falls from greater than 120 min to 12.4 min.

Compared with `Cc1cn(C[C@H](N)C(=O)O)c(=O)n(Cc2ccsc2C(=O)O)c1=O`, `CCOC(=O)[C@H](CCc1ccccc1)N[C@H]1CCc2ccccc2N(CC(=O)O)C1=O` is 2.9-fold lower in half-life: 53.1 min for the first, 18.6 min for the second.

`COc1cc2c(c(OC)c1OC)-c1ccc(OC)c(=O)cc1[C@@H](NC(C)=O)CC2` and `COc1cc(NS(=O)(=O)c2ccc(N)cc2)nc(OC)n1` cannot be ordered by half-life: greater than 120 min for the first, greater than 120 min for the second.

First: O=C(Cc1ccc(-c2ccccc2)cc1)NC1CCC1
Second: CC(Cc1ccccc1)NCc1ccccc1Cl (stereo not drawn)
The half-life of the first is 7.1-fold lower: 1.5 min for the first, 10.6 min for the second.

Going from `CCN(CC)C(=O)SCc1ccc(Cl)cc1` to `CC(C)COC(=O)c1ccc(N)cc1`, the half-life rises from 2.59 min to 11.4 min (4.4-fold).

Compared with `COc1ccc(-c2ccc3ncc4c(c3c2)n(-c2ccc(N3CCNCC3)c(C(F)(F)F)c2)c(=O)n4C)cn1`, `Cc1c(NC(=O)OCC2COCCN2)cn2ncnc(Nc3ccc4c(cnn4Cc4cccc(F)c4)c3)c12` (stereo not drawn) is higher in half-life: 36.3 min for the first, greater than 120 min for the second.

First: C[C@]12CC[C@@H]3c4ccc(O)cc4CC[C@H]3[C@@H]1CCC2=O
Second: C[C@H]1CN(CC[C@H](O)C2CCCCC2)CC[C@@]1(C)c1cccc(O)c1
The half-life of the first is 5.1-fold higher: 34.1 min for the first, 6.75 min for the second.

Compared with `NC1CCC(Nc2cc(-c3cccc(NCc4cccc(F)c4)n3)c(Cl)cn2)CC1` (stereo not drawn), `N#Cc1cnc2cnc(NCc3cccnc3)cc2c1Nc1ccc(F)c(Cl)c1` is lower in half-life: greater than 120 min for the first, 12.4 min for the second.

Compared with `O=C(OC1C[C@@H]2CC3C[C@H](C1)N2CC3=O)c1c[nH]c2ccccc12` (stereo partly drawn), `CC1(C)CC(=O)c2c(C(F)(F)F)nn(-c3ccc(C(N)=O)c(NC4CCC(OC(=O)CN)CC4)c3)c2C1` (stereo not drawn) is 3.3-fold lower in half-life: 5.19 min for the first, 1.57 min for the second.

`Cc1cccc(NC(c2ccccc2F)c2ccc3ccc(C)nc3c2O)n1` (stereo not drawn) and `COc1ccc2nc([C@H]3CCN(Cc4cccc(C#N)c4)C3)[nH]c2c1` are within 1.5-fold of each other in half-life: 14.1 min for the first, 12.3 min for the second.

First: NC(=O)c1ccc(F)c2c1C[C@@H](N(C1CCC1)C1CCC1)CO2
Second: Cc1cccc(C)c1NC(=O)[C@H]1CCCCN1C
The half-life of the first is lower: 15 min for the first, greater than 120 min for the second.

Going from `CC(C)(C)c1coc([C@@H]2COCCN2Cc2cccc(C#N)c2)n1` to `N#Cc1ccnc(Nc2cc(C3CCN(C4COC4)CC3)cc(N3CCC(F)(F)C3)n2)c1`, the half-life rises from 10.4 min to 29.3 min (2.8-fold).

Going from `CC(C)C[C@H]1C(=O)N2CCC[C@H]2[C@]2(O)O[C@](NC(=O)[C@@H]3C=C4c5cccc6[nH]c(Br)c(c56)CC4N(C)C3)(C(C)C)C(=O)N12` (stereo partly drawn) to `CC(C)CCn1c(CN2CCN(C(=O)C(C)C)CC2)nc2c1c(=O)n(C)c(=O)n2C`, the half-life rises from 0.89 min to 70.7 min (79-fold).

First: Nc1c(Br)cc(Br)cc1CNC1CCC(O)CC1 (stereo not drawn)
Second: CCN1CCN(C(=O)C2Cn3cccc3C(=O)N2CC(C)C)CC1 (stereo not drawn)
The half-life of the first is lower: 110 min for the first, greater than 120 min for the second.

`CCOc1ccc(NC(=O)CC(C)O)cc1` (stereo not drawn) and `CCCc1nc(C)c2c(=O)[nH]c(-c3cc(S(=O)(=O)N4CCN(CC)CC4)ccc3OCC)nn12` cannot be ordered by half-life: greater than 120 min for the first, greater than 120 min for the second.

Compared with `COc1cc(C)c(/C=C/C(C)=C/C=C/C(C)=C/C(=O)O)c(C)c1C`, `CCOc1ncc(S(=O)(=O)N2CCN(CC)CC2)cc1-c1nc2c(CC)n(CCOC)nc2c(=O)[nH]1` is 2.4-fold higher in half-life: 32 min for the first, 76.2 min for the second.

`Cc1nn(C)c2c1C(c1ccc(C(F)(F)F)cc1)C(C#N)=C(N)O2` (stereo not drawn) showed a half-life of 11 min.
